Reference: patent US20050048603A1 (priority 2001, published 2005)

B1: mycoAC holoenzyme expressed in E. coli (N-terminal His6-tag) (protein)
chain: MRGSHHHHHHGSMAARKCGAPPIAADGSTRRPDCVTAVRTQARAPTQHYAESVARRQRVLTITAWLAVVVTGSFALMQLATGAGGWYIALINVFTAVTFAIVPLLHRFGGLVAPLTFIGTAYVAIFAIGWDVGTDAGAQFFFLVAAALVVLLVGIEHTALAVGLAAVAAGLVIALEFLVPPDTGLQPPWAMSVSFVLTTVSACGVAVATVWFALRDTARAEAVMEAEHDRSEALLANMLPASIAERLKEPERNIIADKYDEASVLFADIVGFTERASSTAPADLVRFLDRLYSAFDELVDQHGLEKIKVSGDSYMVVSGVPRPRPDHTQALADFALDMTNVAAQLKDPRGNPVPLRVGLATGPVVAGVVGSRRFFYDVWGDAVNVASRMESTDSVGQIQVPDEVYERLKDDFVLRERGHINVKGKGVMRTWYLIGRKVAADPGEVRGAEPRTAGV

Legend:
[1] = target: mycoAC (adenylyl cyclase Rv1625c) (Mycobacterium tuberculosis, UniProt P9WQ35); format: biochemical
[2] = target: P9WQ35

| Molecule | acceptance as a substrate [1] | AC activity of the bacterial membrane preparation [2] |
| --- | --- | --- |
| Mn-GTP | not accepted as a substrate |  |
| B1 |  | 19 nmol cAMP/mg·min^-1 |
